Data set [1] is described as follows: Plasma concentration curve after single oral intake of curcuminoid capsules. The format is in vivo, human. As to conditions: three participants, 4 capsules containing 600 mg curcuminoids, versus untreated sample. As to the method: (§1) One mL TBME was added to the mixture. Feces samples were first diluted 10.000x (four steps of 1:10 dilution) with Bovine Serum Albumin (BSA) 2% in Milli-Q water to reduce matrix effects before 50 μL IS-mix 100uM was added to 100 μL feces dilution. A second 100 μL sample with IS solution was hydrolyzed with 50 μL 20 U/μl β-glucuronidase, vortexed and after this addition incubated for 1 h at 37 °C. Following 1 mL TBME was added. After shaking for 15 min at 480 rpm/min all samples were centrifuged at 18213×g during 1 min. The lower aqueous layer was frozen on dry-iced ethanol and the upper organic layer of approximately 1 mL was decanted into a fresh tube and dried under vacuum using a Speedvac at room temperature. Next, samples were reconstituted with 100 μL MeOH:H2O 60%:40%, vortexed and sonicated for 5 min. After centrifuge at 18213×g during 3 min the supernatant was ready for injection into the HPLC-MS/MS.
(§2) Data from three healthy male participants included from a study researching the bioavailability of curcumin formulations is presented to show the applicability of the method in real-life settings. The participants signed informed consent and followed diet restrictions to avoid any curcumin or piperine intake five days before the visit day to ensure that only curcumin and/or piperine from the curcumin capsules were observed. On the visit day a plasma concentration curve at t = 0, 0.25, 0.50, 0.75, 1, 1.5, 2, 4, 8 and 24 h, collection of 24-h urine and 48-h feces were taken after single oral intake of 4 commercially available soft capsules containing 600 mg curcuminoids (curcumin, demethoxycurcumin and bisdemethoxycurcumin with 95% purity). The trial has been approved by the local institutional ethics committee and has been registered in the Dutch Clinical Trial Register under registration number NL6552. Each individual sample was analyzed according to the method described above.

Data set [2] in a line: Freeze-thaw stability of QC stock solution in DMSO. The format is physicochemical. Particulars: stock 10 μM in DMSO at −20 °C. As to the method:
Freeze-thaw stability of QC stock solution 10 μM at −20 °C was performed with stock solution that had underwent 0, 1 and 10 freeze-thaw cycles. Three samples per freeze-thaw cycle in MeOH:H2O 60%:40% were prepared at 100 nM and measured in duplicate. Four QC samples per concentration were prepared in plasma. Four replicates per sample were frozen for 60 min at −20 °C. All samples were thawed at room temperature and frozen ones (cycle 1). Per four replicates and concentrations the samples were thawed and frozen further a second, third or fourth time. All samples were thawed at the same time for simultaneous assessment with a calibration curve.

A short description of data set [3]: 48-h feces concentration after single oral intake of curcuminoid capsules. The format is in vivo, human. Particulars: 4 capsules containing 600 mg curcuminoids. As to the method: as §1, §2
A short description of data set [4]: 24-h urine concentration after single oral intake of curcuminoid capsules. The format is in vivo, human. Particulars: three participants, 4 capsules containing 600 mg curcuminoids, versus untreated sample. As for the experimental part:
as §1, §2

Data set [5] in a line: Stability of QC samples in plasma during storage in different conditions. The format is in vitro ADME, human.
Details of data set [6]: method as in PMID 9619120. Particulars: rats; addition of 20 mg/kg piperine; cited from earlier work.
A further data set deals with SW620 cells. Also noted: method as in PMID 33812170. Particulars: 10 μM, incubated for 2 days; cited from earlier work.
Data set [7] deals with retinal pigmented epithelial cells and retinal endothelial cells. Also noted: method as in PMID 30013474. As to conditions: 10 μM; cited from earlier work.
The subject of the next data set is pancreatic cancer. Also noted: method as in PMID 18628464. As to conditions: Phase II; cited from earlier work.
[8] abbreviates: QC 10, Room temperature - light.
Where [9] appears, read: QC 50, Room temperature - light.
[10] abbreviates: QC 100, Room temperature - dark.
The mark [11] stands for this setting: QC 100, Room temperature - light.

In the case of `O=C(/C=C/c1ccc(O)cc1)CC(=O)/C=C/c1ccc(O)cc1` [Bisdemethoxy-curcumin, bisdemethoxycurcumin], the “Plasma peak concentrations after treatment with β-glucuronidase” value (from here on “Plasma peak concentrations”) in data set [1] was “increase”. For the same molecule, the entries for the “Freeze-thaw stability, concentration relative to nominal” value in [2] (QC 100 nM 0x thawed), in data set [2] (QC 100 nM 1x thawed) and in [2] (QC 100 nM 10x thawed) were 100%, 100.7% and 97.1%, respectively. Besides, the “Percentage in feces of the total expected dosage” value (shortened to “Percentage in feces”) in [3] is on record as 13%. Moreover, the “Urine concentrations after treatment with β-glucuronidase” value (shortened to “Urine concentrations after treatment”) in [4] was “increase”. Further, the “Stability sample during storage” value in data set [5] (QC 10, AS (reference)) was 100%; in data set [5] (QC 10, On ice - dark), 90%; in data set [5] (QC 10, Room temperature - dark), 95%; in data set [5] (setting [8]) it was 88%; in data set [5] (QC 50, AS (reference)) it was 100%; in data set [5] (QC 50, On ice - dark) it was 90%. Also, the “Stability sample during storage” value in data set [5] (QC 50, Room temperature - dark) was determined as 92%; in data set [5] (setting [9]), 89%; in data set [5] (QC 100, AS (reference)), 100%; in data set [5] (QC 100, On ice - dark) it was 84%; in data set [5] (setting [10]), 84%; in data set [5] (setting [11]), 82%.
Consider demethoxycurcumin [Demethoxy-curcumin], for which, in [1], the “Plasma peak concentrations” value is recorded as “increase”. For the same molecule, the entries for the “Freeze-thaw stability, concentration relative to nominal” value in data set [2] (QC 100 nM 0x thawed), in data set [2] (QC 100 nM 1x thawed) and in data set [2] (QC 100 nM 10x thawed) were 100%, 102.2% and 103.1%, respectively. Also, the “Percentage in feces” value in data set [3] came out at 24.7%. Besides, the “Urine concentrations after treatment” value in data set [4] is “increase”. For the same molecule, the “Stability sample during storage” value in data set [5] (QC 10, AS (reference)) is recorded as 100%; in [5] (QC 10, On ice - dark), 93%; in [5] (QC 10, Room temperature - dark), 95%; in [5] (setting [8]), 87%; in data set [5] (QC 50, AS (reference)), 100%; in [5] (QC 50, On ice - dark) it was 96%. The “Stability sample during storage” value is on record as 100% in data set [5] (QC 50, Room temperature - dark); 93% in data set [5] (setting [9]); 100% in [5] (QC 100, AS (reference)); 91% in [5] (QC 100, On ice - dark); 95% in data set [5] (setting [10]); 89% in data set [5] (setting [11]).
Turning to `O=C(/C=C/C=C/c1ccc2c(c1)OCO2)N1CCCCC1` [Piperine-135, piperine], the “Freeze-thaw stability, concentration relative to nominal” value in [2] (QC 100 nM 0x thawed) is reported as 100%; in data set [2] (QC 100 nM 1x thawed), 101.8%; in data set [2] (QC 100 nM 10x thawed) it was 101.7%. In addition, the “Stability sample during storage” value in [5] (QC 10, AS (reference)) is on record as 100%; in [5] (QC 10, On ice - dark), 77%; in data set [5] (QC 10, Room temperature - dark), 78%; in data set [5] (setting [8]), 77%; in data set [5] (QC 50, AS (reference)), 100%; in data set [5] (QC 50, On ice - dark), 90%. Besides, the “Stability sample during storage” value in [5] (QC 50, Room temperature - dark) was found to be 85%; in data set [5] (setting [9]) it was 90%; in [5] (QC 100, AS (reference)), 100%; in [5] (QC 100, On ice - dark), 89%; in data set [5] (setting [10]) it was 85%; in data set [5] (setting [11]), 85%. Besides, in [6], the “Increase of bioavailability of curcumin” value is given as 154%.
As for `COc1cc(/C=C/C(=O)CC(=O)/C=C/c2ccc(O)c(OC)c2)ccc1O` [Curcumin, curcumin], in data set [1], the “Plasma peak concentrations” value is “increase”. Moreover, in the data set on SW620 cells, the “Phosphorylation levels of ERK and STAT1” value was “significantly downregulated”. Besides, the “Freeze-thaw stability, concentration relative to nominal” value in data set [2] (QC 100 nM 0x thawed) turned out to be 100%; in data set [2] (QC 100 nM 1x thawed) it was 99.8%; in [2] (QC 100 nM 10x thawed) it was 96.8%. Moreover, the “Percentage in feces” value in data set [3] is recorded as “roughly 21.7%”. Moreover, in data set [4], the “Urine concentrations after treatment” value is recorded as “increase”. In addition, the “Stability sample during storage” value in data set [5] (QC 10, AS (reference)) was found to be 100%; in data set [5] (QC 10, On ice - dark), 76%; in data set [5] (QC 10, Room temperature - dark), 83%; in data set [5] (setting [8]) it was 82%; in data set [5] (QC 50, AS (reference)), 100%; in data set [5] (QC 50, On ice - dark), 89%. Besides, the “Stability sample during storage” value in [5] (QC 50, Room temperature - dark) came out at 94%; in [5] (setting [9]) it was 91%; in data set [5] (QC 100, AS (reference)) it was 100%; in data set [5] (QC 100, On ice - dark) it was 87%; in data set [5] (setting [10]), 90%; in data set [5] (setting [11]), 89%. For the same molecule, the ROS concentration result in data set [7] was “decrease”. Also, the TNF-α release result in data set [7] is recorded as “decrease”. In addition, the “Anecdotal beneficial effect, treated patients” value in the data set with pancreatic cancer was “two out of 21”.
`COc1cc(CCC(=O)CC(=O)CCc2ccc(O)c(OC)c2)ccc1O` [Tetrahydrocurcumin]: in data set [1], the “Plasma peak concentrations” value was “increase”. For the same molecule, the “Freeze-thaw stability, concentration relative to nominal” value in data set [2] (QC 100 nM 0x thawed) stood at 100%; in data set [2] (QC 100 nM 1x thawed), 101.0%; in data set [2] (QC 100 nM 10x thawed), 100.0%. Further, the Presence in feces result in data set [3] was “No tetrahydrocurcumin was found”. In addition, the “Urine concentrations after treatment” value in data set [4] is recorded as “increase”. Further, the “Stability sample during storage” value in [5] (QC 10, AS (reference)) is 100%; in data set [5] (QC 10, On ice - dark), 96%; in data set [5] (QC 10, Room temperature - dark), 89%; in [5] (setting [8]) it was 88%; in data set [5] (QC 50, AS (reference)) it was 100%; in [5] (QC 50, On ice - dark) it was 99%. Further, the “Stability sample during storage” value in [5] (QC 50, Room temperature - dark) is recorded as 93%; in data set [5] (setting [9]), 93%; in data set [5] (QC 100, AS (reference)) it was 100%; in data set [5] (QC 100, On ice - dark), 94%; in data set [5] (setting [10]) it was 88%; in [5] (setting [11]), 87%.

Values taken from paper PMC10149208, “A validated HPLC-MS/MS method for simultaneously analyzing curcumin, demethoxycurcumin, bisdemethoxycurcumin, tetra-hydrocurcumin and piperine in human plasma, urine or feces” (Heliyon, 2023).
